Like-named read-outs stand apart in the source and are kept apart here.
Tests used:
[1] = molecular target: human HSP90 alpha protein (HSP90 N-terminal protein, amino acids 2-236) (Homo sapiens (Human), UniProt P07900); experiment: Measurement of HSP90-binding activity (AlphaScreen competitive assay, biotin-labeled geldanamycin); conditions: read-out: HSP-binding activity IC50
SK-BR-3 cells = experiment: Measurement of cell growth inhibition (crystal violet staining method); assay type: cell-based
[2] = concentration inhibiting binding of biotin-labeled geldanamycin (40 nM) to purified HSP90 to 50% of control
[3] = Homo sapiens, breast cancer SK-BR-3 cells, 72 hr culture with test substance

IC50 [1, 2]	IC50 (SK-BR-3 cells; [3])	Molecule	other results
0.41 µM	0.14 µM	CC(C)c1nn(-c2ccc(C(N)=O)c(NC(C)(C)C)c2)c2nccc(-n3cnc(-c4cccnc4)c3)c12 [Example 141, 2-(Tert-butylamino)-4-{3-isopropyl-4-(4-(pyridin-3-yl)-1H-imidazol-1-yl)-1H-pyrazolo[3,4-b]pyridin-1-yl}benzamide]	
0.43 µM		CC(C)c1nn(-c2ccc(C(N)=O)c(NC3CCC(O)CC3)c2)c2nccc(-n3cnc(-c4ccsc4)c3)c12 (centres unmarked) [Example 91]	IC50 (SK-BR-3 cells; breast cancer SK-BR-3 cells, 72 hr culture with test substance): 0.07 µM
0.19 µM	0.14 µM	CCNc1cc(C(N)=O)ccc1-n1nc(C(F)(F)F)c2c(-n3cnc(-c4cccnc4)c3)ccnc21 [Example 180, 3-(Ethylamino)-4-{4-(4-(pyridin-3-yl)-1H-imidazol-1-yl)-3-(trifluoromethyl)-1H-pyrazolo[3,4-b]pyridin-1-yl}benzamide]	
0.19 µM	0.53 µM	CC(C)c1nn(-c2ccc(C(N)=O)cc2C2CC2)c2nccc(-n3cnc(-c4cccnc4)c3)c12 [Example 138, 3-Cyclopropyl-4-{3-isopropyl-4-(4-(pyridin-3-yl)-1H-imidazol-1-yl)-1H-pyrazolo[3,4-b]pyridin-1-yl}benzamide]	
0.1 µM	0.06 µM	CCCNc1cc(C(N)=O)ccc1-n1nc(C(F)(F)F)c2c(-n3cnc(-c4cnn(C)c4)c3)ccnc21 [Example 163, 4-{4-(4-(1-Methyl-1H-pyrazol-4-yl)-1H-imidazol-1-yl)-3-(trifluoromethyl)-1H-pyrazolo[3,4-b]pyridin-1-yl}-3-(propylamino)benzamide]	
0.68 µM	0.23 µM	CC(C)c1nn(-c2ccc(C(N)=O)c(NC3CCC(O)CC3)c2)c2nccc(-n3cnc(-c4ccco4)c3)c12 (centres unmarked) [Example 88, 4-{4-(4-(Furan-2-yl)-1H-imidazol-1-yl)-3-isopropyl-1H-pyrazolo[3,4-b]pyridin-1-yl}-2-(4-hydroxycyclohexylamino)benzamide]	
1.07 µM	0.87 µM	Cn1cc(-c2cn(-c3ccnc4c3c(C(F)(F)F)nn4-c3ccc(C(N)=O)cc3-c3ccccc3)cn2)cn1 [Example 172, 6-{4-(4-(1-Methyl-1H-pyrazol-4-yl)-1H-imidazol-1-yl)-3-(trifluoromethyl)-1H-pyrazolo[3,4-b]pyridin-1-yl}biphenyl-3-carboxamide]	
0.18 µM	0.08 µM	CCNc1cc(-n2nc(C(C)C)c3c(-n4cnc(-c5cnn(C)c5)c4)ccnc32)ccc1C(N)=O [Example 109, 2-(Ethylamino)-4-{3-isopropyl-4-(4-(1-methyl-1H-pyrazol-4-yl)-1H-imidazol-1-yl)-1H-pyrazolo[3,4-b]pyridin-1-yl}benzamide]	
0.49 µM	0.19 µM	CSCCCNc1cc(-n2nc(C(C)C)c3c(-c4cnc5ccccc5c4)ccnc32)ccc1C(N)=O [Example 23, 4-{3-Isopropyl-4-(quinolin-3-yl)-1H-pyrazolo[3,4-b]pyridin-1-yl}-2-{3-(methylthio)propylamino}benzamide]	
0.42 µM	0.41 µM	NC(=O)c1ccc(-n2nc(C(F)(F)F)c3c(-n4cnc(-c5cccnc5)c4)ccnc32)cc1N [Example 176, 2-Amino-4-{4-(4-(pyridin-3-yl)-1H-imidazol-1-yl)-3-(trifluoromethyl)-1H-pyrazolo[3,4-b]pyridin-1-yl}benzamide]	
0.37 µM	0.29 µM	Cc1cc(C(N)=O)ccc1-n1nc(C(F)(F)F)c2c(-n3cnc(-c4cccnc4)c3)ccnc21 [Example 175, 3-Methyl-4-{4-(4-(pyridin-3-yl)-1H-imidazol-1-yl)-3-(trifluoromethyl)-1H-pyrazolo[3,4-b]pyridin-1-yl}benzamide]	
0.25 µM	0.02 µM	CC(C)c1nn(-c2ccc(C(N)=O)c(NC3CCN(C(=O)CN)CC3)c2)c2nccc(-c3cnc4ccccc4c3)c12 [Example 79, 2-{1-(2-Aminoacetyl)piperidin-4-ylamino}-4-{3-isopropyl-4-(quinolin-3-yl)-1H-pyrazolo[3,4-b]pyridin-1-yl}benzamide]	
0.7 µM	0.92 µM	CCc1c(-n2nc(C(C)C)c3c(-n4cnc(-c5cnn(C)c5)c4)ccnc32)ccc(C(N)=O)c1F [Example 131, 3-Ethyl-2-fluoro-4-{3-isopropyl-4-(4-(1-methyl-1H-pyrazol-4-yl)-1H-imidazol-1-yl)-1H-pyrazolo[3,4-b]pyridin-1-yl}benzamide]	
1.5 µM	0.28 µM	CC(C)c1nn(-c2ccc(C(N)=O)c(Nc3ccc(CN4CCCC4)cc3)c2)c2nccc(-c3cnc4ccccc4c3)c12 [Example 35, 4-{3-Isopropyl-4-(quinolin-3-yl)-1H-pyrazolo[3,4-b]pyridin-1-yl}-2-{4-(pyrrolidin-1-ylmethyl)phenylamino}benzamide]	
0.13 µM	0.03 µM	Cc1nn(-c2ccc(C(N)=O)c(N[C@H]3CC[C@H](O)CC3)c2)c2nccc(-c3cnc4ccccc4c3)c12 [Example 2, 2-(Trans-4-hydroxycyclohexylamino)-4-{4-(quinolin-3-yl)-3-methyl-1H-pyrazolo[3,4-b]pyridin-1-yl}benzamide]	
0.1 µM	0.01 µM	NC(=O)c1ccc(-n2cc(C(F)(F)F)c3c(-c4cnc5ccccc5c4)ccnc32)cc1N[C@H]1CC[C@H](O)CC1 [Example 43, 2-(Trans-4-hydroxycyclohexylamino)-4-{4-(quinolin-3-yl)-3-(trifluoromethyl)-1H-pyrrolo[2,3-b]pyridin-1-yl}benzamide]	
0.21 µM	0.55 µM	Cc1cc(C(N)=O)ncc1-n1nc(C(C)C)c2c(-n3cnc(-c4cnn(C)c4)c3)ccnc21 [Example 118, 5-{3-Isopropyl-4-(4-(1-methyl-1H-pyrazol-4-yl)-1H-imidazol-1-yl)-1H-pyrazolo[3,4-b]pyridin-1-yl}-4-methylpicolinamide]	
1.03 µM	0.63 µM	Cc1cc(-n2nc(C(C)C)c3c(-c4cnc5ccccc5c4)ccnc32)ccc1C(N)=O [Example 81, 4-{3-Isopropyl-4-(quinolin-3-yl)-1H-pyrazolo[3,4-b]pyridin-1-yl}-2-methylbenzamide]	
0.14 µM	0.12 µM	Cc1cc(C(N)=O)ccc1-n1nc(C(F)(F)F)c2c(-n3cnc(-c4cnn(C)c4)c3)ccnc21 [Example 154, 3-Methyl-4-{4-(4-(1-methyl-1H-pyrazol-4-yl)-1H-imidazol-1-yl)-3-(trifluoromethyl)-1H-pyrazolo[3,4-b]pyridin-1-yl}benzamide]	
0.24 µM	0.13 µM	CC(C)c1nn(-c2ccc(C(N)=O)c(NCCN(C)C)c2)c2nccc(-c3cnc4ccccc4c3)c12 [Example 27, 2-{2-(Dimethylamino)ethylamino}-4-{3-isopropyl-4-(quinolin-3-yl)-1H-pyrazolo[3,4-b]pyridin-1-yl}benzamide]	
		2-(4-Hydroxycyclohexylamino)-4-{3-methyl-4-(4-(pyridin-3-yl)-1H-imidazol-1-yl)-1H-pyrazolo[2,3-b]pyridin-1-yl}benzamide [Example 98]	IC50 [1]: 0.07 µM; IC50 (SK-BR-3 cells): 0.01 µM

Molecule	IC50 [1, 2]	IC50 (SK-BR-3 cells; [3])	other results
CCc1cn(-c2ccc(C(N)=O)c(N[C@H]3CC[C@H](OC(=O)CN)CC3)c2)c2nccc(-c3cnc4ccccc4c3)c12 [Example 42, Trans-4-{2-carbamoyl-5-{3-ethyl-4-(quinolin-3-yl)-1H-pyrrolo[2,3-b]pyridin-1-yl}phenylamino}cyclohexyl-2-aminoacetate dimethanesulfonate]	0.19 µM		IC50 (SK-BR-3 cells; Homo sapiens, SK-BR-3, 72 h): 0.03 µM

Source: patent US8779142B2, “Azabicyclo compound and salt thereof” (Taiho Pharmaceutical Co., Ltd., priority 2009, dated 2014)
